Reference: patent US7901893B2, “NPC1L1 (NPC3) and methods of identifying ligands thereof” (Merck Sharp & Dohme Corp., priority 2004, dated 2011)

How the values were obtained:
mouse SR-B1 = biological target: T1, mouse SR-B1 (Mus musculus, UniProt Q61009); assay: Effect of ezetimibe on cholesterol uptake, SR-B1 transfected CHO cells; type: cell-based; conditions: EZ (10 μM), SR-BI
T1 construct: expressed in transfected cells
T1 sequence (Q61009 1-509): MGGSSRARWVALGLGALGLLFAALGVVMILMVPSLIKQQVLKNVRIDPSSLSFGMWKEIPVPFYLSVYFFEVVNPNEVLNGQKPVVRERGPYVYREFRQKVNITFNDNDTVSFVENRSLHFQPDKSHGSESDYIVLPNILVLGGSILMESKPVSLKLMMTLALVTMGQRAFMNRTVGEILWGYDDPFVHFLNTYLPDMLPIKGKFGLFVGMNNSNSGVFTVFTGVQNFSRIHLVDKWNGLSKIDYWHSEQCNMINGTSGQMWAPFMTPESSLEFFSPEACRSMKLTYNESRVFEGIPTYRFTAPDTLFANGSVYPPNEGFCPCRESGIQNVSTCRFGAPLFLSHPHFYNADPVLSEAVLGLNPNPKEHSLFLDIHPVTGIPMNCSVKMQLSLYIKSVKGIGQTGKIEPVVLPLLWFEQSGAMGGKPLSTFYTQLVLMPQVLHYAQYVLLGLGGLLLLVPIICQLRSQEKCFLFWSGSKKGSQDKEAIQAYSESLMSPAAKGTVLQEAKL
Description: (§1) The effect of ezetimibe on the ability of CHO cells stably transfected with mouse or rat NPC1L1 or mouse SR-B1 to take up ^3H-labeled cholesterol was evaluated in pulse-chase experiments. One cDNA clone of mouse NPC1L1 (C7) and three clones of rat NPC1L1 (C7, C17 and C21) were evaluated. The ability of CHO cells stably transfected with mouse SR-B1, mouse NPC1L1 and rat NPC1L1 to take up labeled cholesterol, in the absence of ezetimibe, was also evaluated in the pulse-chase experiments. Data generated in these experiments are set forth, below, in Tables 4 and 5. Additionally, the quantity of total cholesterol taken up by transfected and untransfected CHO cells in the presence of four different unlabeled cholesterol concentrations was also evaluated.
(§2) Starve. The maintenance media (F12 HAMS, 1% Pen/Strep, 10% FCS) was removed and the cells were rinsed with serum-free HAMS media. The serum-free media was then replaced with 1 mL “starve” media (F12 HAMS, Pen/Strep, 5% lipoprotein deficient serum (LPDS). The cells were then starved overnight.
(§3) Pre-Incubation/pre-dose. Media was removed from all plates and replaced with fresh starve media and preincubated for 30 minutes. Half of the wells received media containing ezetimibe (stock soln in EtOH; final conc.=10 μM).
(§4) ^3H-Cholesterol Pulse. The following was added directly to each well: • 0.5 μCi ^3H-cholesterol (˜1.1×10^6 dpm/well) in 50 μl of a mixed bile salt micelle • 4.8 mM sodium taurocholate (2.581 mg/mL) • 0.6 mM sodium oleate (0.183 mg/mL) • 0.25 mM cholesterol (0.1 mg/mL) • Dispersed in “starve” media by ultrasonic vibration • Final media cholesterol concentration=5 μg/mL
(§5) Labeled cholesterol pulse time points were 4, 12, 24 minutes and 4 hours. Triplicate wells were prepared for each treatment.
(§6) Wash. At designated times, media was aspirated and cells were washed once with Hobbs Buffer A (50 mM Tris, 0.9% NaCl, 0.2% bovine serum albumin (BSA), pH 7.4) and once with Hobbs Buffer B (50 mM Tris, 0.9% NaCl, pH 7.4 (no BSA)) at 37° C.
(§7) A. 4, 12, 24 minute time points: Cells were digested overnight with 0.2N NaOH, 2 mL/well, room temperature. One 1.5 mL aliquot was removed from each well, neutralized & counted for radioactivity by scintillation counting.
(§8) B. 4 hour time point: The digested cells were analyzed by thin-layer chromatography to determine the content of cholesterol ester in the cells.
(§9) Extracts were spotted onto TLC plates and run for 30 minutes in 2 ml hexane:isopropanol (3:2) mobile phase for 30 minutes, followed by a second run in 1 ml hexane:isopropanol (3:2) mobile phase for 15 minutes.
(§10) C. Protein determination of cell extracts. Plates containing a sample of the cell extracts were placed on orbital shaker at 120 rpm for indicated times and then extracts are pooled into 12×75 tubes. Plates were dried and NaOH (2 ml/well) added. The protein content of the samples were then determined. Two additional 50 μl aliquots from all wells were assayed for total protein by the Pierce micro BCA method. The quantity of labeled cholesterol observed in the cells was normalized to the quantity of protein in the cells.

cholesterol absorption = conditions: rat; cited from earlier work
rat NPC1L1 = rat NPC1L1 (Rattus norvegicus, UniProt Q6T3U3); assay: Effect of ezetimibe on cholesterol uptake, rat NPC1L1 transfected CHO cells; type: cell-based; parameters: expressed in transfected cells; pCDNA3); conditions: EZ (10 μM); for Cholesteryl Ester, dpm ± sem / Cholesteryl Ester, dpm/mg protein ± sem / Free Cholesterol, dpm ± sem / Free Cholesterol, dpm/mg protein ± sem: 4 Hour Pulse
Description: as §1, §2, §3, §4, §5, §6, §7, §8, §9, §10

In the case of `O=C1[C@H](CC[C@H](O)c2ccc(F)cc2)[C@@H](c2ccc(O)cc2)N1c1ccc(F)cc1` [ezetimibe], the “Cholesteryl Ester, dpm ± sem” value (mouse SR-B1; 4 Hour Pulse) is reported as 9305 ± 401 dpm, the “Cholesteryl Ester, dpm/mg protein ± sem” value (mouse SR-B1; 4 Hour Pulse) is reported as 72782 ± 3181 dpm/mg protein and the “Free Cholesterol, dpm ± sem” value (mouse SR-B1; 4 Hour Pulse) is reported as 194519 ± 474 dpm. The “Free Cholesterol, dpm/mg protein ± sem” value (mouse SR-B1; 4 Hour Pulse) was 1521341 ± 4185 dpm/mg protein, the “Total Cholesterol, dpm ± sem” value (mouse SR-B1; 4 Min Pulse) was 10968 ± 821 dpm and the “Total Cholesterol, dpm/mg protein ± sem” value (mouse SR-B1; 4 Min Pulse) was 92474 ± 2902 dpm/mg protein. The “Total Cholesterol, dpm ± sem” value (mouse SR-B1; 12 Min Pulse) was 12349 ± 298 dpm, the “Total Cholesterol, dpm/mg protein ± sem” value (mouse SR-B1; 12 Min Pulse) was 98956 ± 4447 dpm/mg protein and the “Total Cholesterol, dpm ± sem” value (mouse SR-B1; 24 Min Pulse) was 23558 ± 1310 dpm. For the same compound, the “Total Cholesterol, dpm/mg protein ± sem” value (mouse SR-B1; 24 Min Pulse) was 198725 ± 11713 dpm/mg protein, the “potency (ED50) in vivo” value (cholesterol absorption) was 0.03 mpk and the “Cholesteryl Ester, dpm ± sem” value (rat NPC1L1; rNPC1L1(C7)) was 191 ± 54 dpm. The “Cholesteryl Ester, dpm/mg protein ± sem” value (rat NPC1L1; rNPC1L1(C7)) was 1496 ± 403 dpm/mg protein, the “Free Cholesterol, dpm ± sem” value (rat NPC1L1; rNPC1L1(C7)) was 70628 ± 212 dpm and the “Free Cholesterol, dpm/mg protein ± sem” value (rat NPC1L1; rNPC1L1(C7)) was 556855 ± 7481 dpm/mg protein. The “Cholesteryl Ester, dpm ± sem” value (rat NPC1L1; rNPC1L1(C17)) was 202 ± 10 dpm, the “Cholesteryl Ester, dpm/mg protein ± sem” value (rat NPC1L1; rNPC1L1(C17)) was 1510 ± 62 dpm/mg protein and the “Free Cholesterol, dpm ± sem” value (rat NPC1L1; rNPC1L1(C17)) was 71646 ± 446 dpm. The “Free Cholesterol, dpm/mg protein ± sem” value (rat NPC1L1; rNPC1L1(C17)) was 536651 ± 7146 dpm/mg protein, the “Cholesteryl Ester, dpm ± sem” value (rat NPC1L1; rNPC1L1(C21)) was 454 ± 33 dpm and the “Cholesteryl Ester, dpm/mg protein ± sem” value (rat NPC1L1; rNPC1L1(C21)) was 3193 ± 265 dpm/mg protein. For the same compound, the “Free Cholesterol, dpm ± sem” value (rat NPC1L1; rNPC1L1(C21)) was 69106 ± 711 dpm, the “Free Cholesterol, dpm/mg protein ± sem” value (rat NPC1L1; rNPC1L1(C21)) was 485460 ± 4410 dpm/mg protein and the “Total Cholesterol, dpm ± sem” value (rat NPC1L1; 4 Min Pulse, rNPC1L1(C7)) was 3268 ± 121 dpm. For the same compound, the “Total Cholesterol, dpm/mg protein ± sem” value (rat NPC1L1; 4 Min Pulse, rNPC1L1(C7)) was 27285 ± 968 dpm/mg protein, the “Total Cholesterol, dpm ± sem” value (rat NPC1L1; 4 Min Pulse, rNPC1L1(C17)) was 3676 ± 134 dpm and the “Total Cholesterol, dpm/mg protein ± sem” value (rat NPC1L1; 4 Min Pulse, rNPC1L1(C17)) was 28675 ± 527 dpm/mg protein. For the same compound, the “Total Cholesterol, dpm ± sem” value (rat NPC1L1; 4 Min Pulse, rNPC1L1(C21)) was 3769 ± 147 dpm, the “Total Cholesterol, dpm/mg protein ± sem” value (rat NPC1L1; 4 Min Pulse, rNPC1L1(C21)) was 27098 ± 689 dpm/mg protein and the “Total Cholesterol, dpm ± sem” value (rat NPC1L1; 12 Min Pulse, rNPC1L1(C7)) was 4664 ± 63 dpm. For the same compound, the “Total Cholesterol, dpm/mg protein ± sem” value (rat NPC1L1; 12 Min Pulse, rNPC1L1(C7)) was 38581 ± 784 dpm/mg protein, the “Total Cholesterol, dpm ± sem” value (rat NPC1L1; 12 Min Pulse, rNPC1L1(C17)) was 4579 ± 257 dpm and the “Total Cholesterol, dpm/mg protein ± sem” value (rat NPC1L1; 12 Min Pulse, rNPC1L1(C17)) was 34063 ± 1619 dpm/mg protein. The “Total Cholesterol, dpm ± sem” value (rat NPC1L1; 12 Min Pulse, rNPC1L1(C21)) was 4703 ± 231 dpm, the “Total Cholesterol, dpm/mg protein ± sem” value (rat NPC1L1; 12 Min Pulse, rNPC1L1(C21)) was 33985 ± 1928 dpm/mg protein and the “Total Cholesterol, dpm ± sem” value (rat NPC1L1; 24 Min Pulse, rNPC1L1(C7)) was 7829 ± 204 dpm. The “Total Cholesterol, dpm/mg protein ± sem” value (rat NPC1L1; 24 Min Pulse, rNPC1L1(C7)) was 63482 ± 368 dpm/mg protein, the “Total Cholesterol, dpm ± sem” value (rat NPC1L1; 24 Min Pulse, rNPC1L1(C17)) was 8192 ± 237 dpm and the “Total Cholesterol, dpm/mg protein ± sem” value (rat NPC1L1; 24 Min Pulse, rNPC1L1(C17)) was 62279 ± 4352 dpm/mg protein. For the same compound, the “Total Cholesterol, dpm ± sem” value (rat NPC1L1; 24 Min Pulse, rNPC1L1(C21)) was 8760 ± 293 dpm and the “Total Cholesterol, dpm/mg protein ± sem” value (rat NPC1L1; 24 Min Pulse, rNPC1L1(C21)) was 66165 ± 2181 dpm/mg protein.
